From ChEMBL document CHEMBL2331348, “Positive allosteric modulators of nicotinic acetylcholine receptor” (ACS Med Chem Lett, 2013)

Target: Neuronal acetylcholine receptor subunit alpha-7 (Homo sapiens, UniProt P36544)
Experiment: Positive allosteric modulator activity at human alpha7 nAChR expressed in rat GH4C1 cells assessed as potentiation of acetylcholine-induced response by FDSS Ca2+ assay
Format: cell-based, GH4-C1

Neuronal acetylcholine receptor subunit alpha-7, sequence (P36544 whole entry): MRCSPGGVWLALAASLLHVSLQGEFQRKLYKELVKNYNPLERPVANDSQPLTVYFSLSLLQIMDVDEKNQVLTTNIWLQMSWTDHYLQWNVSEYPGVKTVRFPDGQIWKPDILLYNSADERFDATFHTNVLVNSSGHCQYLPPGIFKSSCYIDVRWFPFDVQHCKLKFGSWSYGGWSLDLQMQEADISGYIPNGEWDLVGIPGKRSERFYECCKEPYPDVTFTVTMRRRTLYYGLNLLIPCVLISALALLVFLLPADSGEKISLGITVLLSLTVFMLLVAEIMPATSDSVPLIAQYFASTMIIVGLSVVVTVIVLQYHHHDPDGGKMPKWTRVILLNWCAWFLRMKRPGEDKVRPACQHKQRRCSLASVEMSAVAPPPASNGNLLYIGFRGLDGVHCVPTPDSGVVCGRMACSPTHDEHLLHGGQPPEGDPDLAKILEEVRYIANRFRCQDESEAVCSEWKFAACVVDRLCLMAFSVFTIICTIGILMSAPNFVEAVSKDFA

EC50: 2000 nM
SMILES: C[C@H](NC(=O)[C@H]1C[C@@H]1c1ccccc1)c1ccc(S(C)(=O)=O)nc1
